Test results taken from patent US6579556B2, “Ambient stable beverage” (Lipton, division of Conopco, Inc., priority 2000, dated 2003).
Values after ≈ are worked out from the molar mass of the structure shown.

Key:
Format in all cases: cell-based
[1] = test system: yeast Saccharomyces cerevisiae X2180-1B; assay: Ready to Drink tea experiments, yeast growth after heat + pasteurisation adjunct; conditions: 0-200 ppm, OD 600 nm at 14 days; for effect of heat+pasteurisation adjunct on yeast growth: Ready to Drink tea 0.14% tea pH 3.4, held at temperature 2 minutes; for effect of pasteurisation adjunct at low temperature on yeast growth: Ready to Drink tea 0.14% tea pH 3.4, low temperature
Method: Rows of 30 ml tubes containing 10 ml RTD tea, pH 3.4, were equilibrated at the required temperature for 7 minutes in a water bath, before inoculation with 10^4 cells/ml of the yeast Saccharomyces cerevisiae […]-1B. Tubes were held at temperature for 2 minutes before being cooled rapidly in cold water for 5 minutes. Tubes were then incubated for 14 days at 25° C. to allow surviving yeasts to grow out. At 14 days growth was measured by optical density at 600 nm in x11 diluted samples. […] Rows of 30 ml tubes containing 10 ml RTD tea, pH 3.4, were equilibrated at the required temperature for 7 minutes in a water bath, before inoculation with 10^4 cells/ml of the yeast Saccharomyces cerevisiae […]-1B. Tubes were held at temperature for 2 minutes before being cooled rapidly in cold water for 5 minutes. Tubes were then incubated for 14 days at 25° C. to allow surviving yeasts to grow out. At 14 days growth was measured by optical density at 600 nm in x11 diluted samples. […] Rows of 30 ml tubes containing 10 ml RTD tea, pH 3.4, were equilibrated at the required temperature for 7 minutes in a water bath, before inoculation with 10^4 cells/ml of the yeast Saccharomyces cerevisiae […]-1B. Tubes were held at temperature for 2 minutes before being cooled rapidly in cold water for 5 minutes. Tubes were then incubated for 14 days at 25° C. to allow surviving yeasts to grow out. At 14 days growth was measured by optical density at 600 nm in x11 diluted samples. […] Rows of 30 ml tubes containing 10 ml RTD tea, pH 3.4, were equilibrated at the required temperature for 7 minutes in a water bath, before inoculation with 10^4 cells/ml of the yeast Saccharomyces cerevisiae […]-1B. Tubes were held at temperature for 2 minutes before being cooled rapidly in cold water for 5 minutes. Tubes were then incubated for 14 days at 25° C. to allow surviving yeasts to grow out. At 14 days growth was measured by optical density at 600 nm in x11 diluted samples. […] Rows of 30 ml tubes containing 10 ml RTD tea, pH 3.4, were equilibrated at the required temperature for 7 minutes in a water bath, before inoculation with 10^4 cells/ml of the yeast Saccharomyces cerevisiae […]-1B. Tubes were held at temperature for 2 minutes before being cooled rapidly in cold water for 5 minutes. Tubes were then incubated for 14 days at 25° C. to allow surviving yeasts to grow out. At 14 days growth was measured by optical density at 600 nm in x11 diluted samples. […] Rows of 30 ml tubes containing 10 ml RTD tea, pH 3.4, were equilibrated at the required temperature for 7 minutes in a water bath, before inoculation with 10^4 cells/ml of the yeast Saccharomyces cerevisiae […]-1B. Tubes were held at temperature for 2 minutes before being cooled rapidly in cold water for 5 minutes. Tubes were then incubated for 14 days at 25° C. to allow surviving yeasts to grow out. At 14 days growth was measured by optical density at 600 nm in x11 diluted samples. […] Rows of 30 ml tubes containing 10 ml RTD tea, pH 3.4, were equilibrated at the required temperature for 7 minutes in a water bath, before inoculation with 10^4 cells/ml of the yeast Saccharomyces cerevisiae […]-1B. Tubes were held at temperature for 2 minutes before being cooled rapidly in cold water for 5 minutes. Tubes were then incubated for 14 days at 25° C. to allow surviving yeasts to grow out. At 14 days growth was measured by optical density at 600 nm in x11 diluted samples. […] Rows of 30 ml tubes containing 10 ml RTD tea, pH 3.4, were equilibrated at the required temperature for 7 minutes in a water bath, before inoculation with 10^4 cells/ml of the yeast Saccharomyces cerevisiae […]-1B. Tubes were held at temperature for 2 minutes before being cooled rapidly in cold water for 5 minutes. Tubes were then incubated for 14 days at 25° C. to allow surviving yeasts to grow out. At 14 days growth was measured by optical density at […] in x11 diluted samples.

[2] = test system: yeast Saccharomyces cerevisiae X2180-1B; assay: Fungicidal activity / MIC at 50° C. versus 30° C., yeast survival in YEPD broth pH 3.4; conditions: for MIC: Saccharomyces cerevisiae, read-out: MIC50; for MIC / MIC50: minimum inhibitory concentration; for MIC / fungicidal activity when heated to 50° C. / MIC50: 50° C.; for Importance: rating as pasteurisation adjunct
Method: In the table the minimum inhibitory concentration (MIC) is given for each compound as well as the molecular weight (M.W.), the logPoct and a rating of its importance. […] The logPoct, that is the logarithm of the partition coefficient of the relevant compound in octanol and thus a measure of its […], was determined using […]™ software from the CHEMOFFICE ULRA ENHANCED 2000™ software package (version 5.5) that is commercially available from CambridgeSoft.
(§1) YEPD contained glucose, 20 g/l, peptone 20 g/l and yeast extract 10 g/l. Rows of 30 ml tubes containing 10 ml YEPD, pH 3.4, were equilibrated at the required temperature for 7 minutes in a water bath, before inoculation with 10^4 cells/ml of the yeast Saccharomyces cerevisiae X2180-1B. Tubes were held at temperature for 10 minutes before being cooled rapidly in cold water for 5 minutes. Tubes were then incubated for 48 hours at 25° C. to allow surviving yeasts to grow out, and form discrete colonies.
as §1, §1, §1

[3] = test system: bacteria, Gluconobacter sp. 222; assay: Bacteria experiments, growth after heat + pasteurisation adjunct; conditions: 0-100 ppm, growth measured visually at 14 days; for effect of heat+pasteurisation adjunct on bacteria: Ready to Drink tea or synthetic soft drink pH 3.4, 2 minutes at temperature; for effect of pasteurisation adjunct at low temperature on growth: Ready to Drink tea or synthetic soft drink pH 3.4, low temperature
Method: Rows of 30 ml tubes containing 10 ml soft drink, pH 3.4, were equilibrated at the required temperature for 7 minutes in a water bath, before inoculation with 10^4 cells/ml of the bacteria, Gluconobacter sp. 222. Tubes were held at temperature for 2 minutes before being cooled rapidly in cold water for 5 minutes. Tubes were then incubated for 14 days at 25° C. to allow surviving bacteria to grow out. At 14 days growth was measured visually.

Row | SMILES | effect of heat+pasteurisation adjunct on yeast growth [1] | effect of pasteurisation adjunct at low temperature on yeast growth [1] | MIC [2] | Importance [2] | effect of heat+pasteurisation adjunct on bacteria [3] | effect of pasteurisation adjunct at low temperature on growth [3] | fungicidal activity at 30° C. [2] | fungicidal activity when heated to 50° C. [2] | MIC50 [2] | MIC50 ([2]; given as ppm)
1 | CCCCCCCC=CC(=O)OCC [Ethyl 2-decenoate] | remarkable combined synergistic effect | little effect | 1000 µM (≈ 198 µg/mL) | High (High effects compounds, most preferred, generally showed at least a 5 fold decrease in MIC, minimum inhibitory concentration at 50 °C compared with 30° C.) |  |  |  |  |  | 
2 | CCCCCCCCCCCC(=O)O [Lauric acid] | remarkable combined synergistic effect | little effect |  | High (High effects compounds, most preferred, generally showed at least a 5 fold decrease in MIC, minimum inhibitory concentration at 50 °C compared with 30° C.) | remarkable combined synergistic effect | little effect | no fungicidal activity | significant fungicidal activity |  | 
3 | CCCCCCCCCCCCO [Lauric alcohol] | remarkable combined synergistic effect | little effect |  | High (High effects compounds, most preferred, generally showed at least a 5 fold decrease in MIC, minimum inhibitory concentration at 50 °C compared with 30° C.) |  |  |  |  | 0.1 mM (≈ 18.6 µg/mL) | 18.6 ppm
4 | CC(=O)CC/C=C(\C)CCC=C(C)C [Geranylacetone] | remarkable combined synergistic effect | little effect | 500 µM (≈ 97.2 µg/mL) | High (High effects compounds, most preferred, generally showed at least a 5 fold decrease in MIC, minimum inhibitory concentration at 50 °C compared with 30° C.) |  |  |  |  |  | 
5 | CC(=O)OC/C=C(\C)CCC=C(C)C [Geranyl acetate] | remarkable combined synergistic effect | little effect | 1000 µM | High (High effects compounds, most preferred, generally showed at least a 5 fold decrease in MIC, minimum inhibitory concentration at 50 °C compared with 30° C.) |  |  |  |  |  | 
6 | CCCCCCCCCCCC=O [Lauric aldehyde] | remarkable combined synergistic effect | little effect |  | High (High effects compounds, most preferred, generally showed at least a 5 fold decrease in MIC, minimum inhibitory concentration at 50 °C compared with 30° C.) |  |  |  |  | 0.2 mM (≈ 36.9 µg/mL) | 36 ppm
7 | CCCCCCCCCCOC(C)=O [Decyl acetate] | remarkable combined synergistic effect | little effect | 1000 µM | High (High effects compounds, most preferred, generally showed at least a 5 fold decrease in MIC, minimum inhibitory concentration at 50 °C compared with 30° C.) | remarkable combined synergistic effect | little effect | no fungicidal activity | significant fungicidal activity |  | 
